Two molecules from US20220211703A1, “METHOD FOR TREATING COUGH BY USING DIAMINOPYRIMIDINE COMPOUND” (BEIJING TIDE PHARMACEUTICAL CO., LTD., priority 2019, published 2022) can be followed below.

What is called IC50 is the concentration needed to halve the response being measured.

Test [1] relates to Dunkin-Hartley guinea pigs. As to the kind of experiment: Effect on the guinea pig cough model (ATP or histamine plus citric acid induced cough). Type of test: in vivo. As to conditions: oral administration 30 minutes to 1 hour before inducing cough, 250 uM ATP or 0.6 mM histamine then 0.5 M citric acid nebulized, FIG. 1 to FIG. 3 (doses 5.1-92 mg/kg). The protocol:
In this test, dextromethorphan (purchased from Shanghai Send Pharmaceutical Technology Co., Ltd.) was used as a positive control compound. A clinical control compound having the following structure was employed, and it was prepared according to the method described in WO 2008/040652 A1:
Test animals were 300-350 g Dunkin-Hartley guinea pigs (purchased from Shanghai Jiagan Biotechnology Co., Ltd). After being purchased and adaptively fed for one week, the animals were randomly divided into groups based on body weight, each test group comprising 10-15 test animals The vehicle (a 0.5% CMCNa solution), the test compounds, the positive control compound (dextromethorphan) or the clinical control compound were orally administrated (compounds at test dosages were respectively added to a 0.5% CMCNa solution, uniformly dispersed through thorough ultrasonic treatment; the solution was vortex mixed again before administration to each animal, and the test dosage ranged from 1 mg/kg to 100 mg/kg). Administration was performed 30 minutes to 1 hour before inducing cough.
Method of inducing cough: test animals were put in a body pneumotachograph (Buxco) and allowed to stand for several minutes. […] Starting from the nebulization of citric acid, the number of coughs of the animals in 10 minutes were recorded by employing a small animal pulmonary function detector (Buxco).

In test [2] the target is T1, P2X3 (Homo sapiens, UniProt P56373).
T1 construct: expressed in transfected cells; host or cells: 1321N1 cells, stably transfected
T1 sequence (P56373 1-397): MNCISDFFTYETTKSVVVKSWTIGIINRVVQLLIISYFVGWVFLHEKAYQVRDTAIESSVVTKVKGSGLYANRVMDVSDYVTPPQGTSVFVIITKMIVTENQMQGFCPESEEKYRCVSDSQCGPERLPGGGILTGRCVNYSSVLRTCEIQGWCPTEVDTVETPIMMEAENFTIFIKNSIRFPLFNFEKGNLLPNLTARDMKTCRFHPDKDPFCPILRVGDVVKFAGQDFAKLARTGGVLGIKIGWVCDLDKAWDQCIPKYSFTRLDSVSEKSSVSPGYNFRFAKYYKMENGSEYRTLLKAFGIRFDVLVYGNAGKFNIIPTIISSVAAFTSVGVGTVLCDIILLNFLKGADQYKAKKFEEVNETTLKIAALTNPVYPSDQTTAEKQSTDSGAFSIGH
Briefly: Inhibition on the P2X3-mediated current in 1321N1 cell line stably transfected with P2X3 (whole-cell patch clamp). It is filed as cell-based. As to conditions: 1321N1 P2X3 stable transfected cells, clamping potential -60 mV, 5 minutes pre-treatment, Hill equation fit; read-out: IC50, inhibition of P2X3-mediated current induced by 10 μM Na2ATP. The method, then:
Membrane current was recorded by employing HEKA EPC-10 patch clamp amplifier and PATCHMASTER acquisition system. 1321N1 P2X3 stable transfected cells were transferred to an about 1 ml bath embedded in an inverted microscope platform, and an extracellular fluid (2 mM CaCl2, 1 mM MgCl2, 5 mM KCl, 155 mM NaCl, 12 mM glucose and 10 mM HEPES (pH=7.4)) was perfused by using a gravitational perfusion system. The P2X3-mediated current of a single cell was recorded in a whole cell recording mode. After formation of a gigaseal and rapture of the membrane, clamping potential was set at −60 mV. 10 μM Na2ATP was perfused for 5 seconds, and the P2X3-mediated current induced at this point was taken as a control current. The cells were then treated with a solution of compound 66 at a specific concentration (prepared with the extracellular fluid) for 5 minutes. The solution of compound 66 at this concentration and 10 μM Na2ATP were co-applied to induce a cell current (see FIG. 4 for the effect of the compound on the current), and an inhibition rate relative to the control current was calculated according to the following formula:
(§1) Inhibition Rate Relative to the Control Current=(1−I2/I1)*100%
(§2) wherein I1 represents the control current, and I2 represents the current after application of compound 66. […]
(Patch clamp records ionic current or voltage across a cell membrane.)

Test [3] concerns the target T2, P2X3 (Rattus norvegicus, UniProt P49654).
T2 construct: The primary cells of rat DRG were transferred; endogenous in cells; host or cells: primary rat dorsal root ganglion cells, cultured ex vivo
T2 sequence (P49654 1-397): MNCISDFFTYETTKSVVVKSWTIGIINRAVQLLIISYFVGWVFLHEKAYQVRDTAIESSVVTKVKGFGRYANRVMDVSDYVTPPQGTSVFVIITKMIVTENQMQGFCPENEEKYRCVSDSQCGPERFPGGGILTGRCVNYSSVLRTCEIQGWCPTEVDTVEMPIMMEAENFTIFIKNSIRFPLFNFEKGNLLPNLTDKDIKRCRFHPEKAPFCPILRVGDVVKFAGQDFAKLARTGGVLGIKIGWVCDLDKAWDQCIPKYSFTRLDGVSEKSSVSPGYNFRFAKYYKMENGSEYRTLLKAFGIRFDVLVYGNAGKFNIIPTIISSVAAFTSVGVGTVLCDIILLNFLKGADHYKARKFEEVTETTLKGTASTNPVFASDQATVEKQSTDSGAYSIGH
Briefly: Inhibition on the P2X3-mediated current in ex vivo cultured rat dorsal root ganglion (whole-cell patch clamp). It is filed as cell-based. As to conditions: primary cells of rat DRG, clamping potential -60 mV, 5 minutes pre-treatment, Hill equation fit; read-out: IC50, inhibition of P2X3-mediated current induced by 30 μM a,b-Me ATP. The protocol: Membrane current was recorded by employing HEKA EPC-10 patch clamp amplifier and PATCHMASTER acquisition system. The primary cells of rat DRG were transferred to an about 1 ml bath embedded in an inverted microscope platform, and an extracellular fluid (2 mM CaCl2, 1 mM MgCl2, […] KCl, 155 mM NaCl, 12 mM glucose and 10 mM HEPES (pH=7.4)) was perfused by using a gravitational perfusion system. The P2X3-mediated current of a single cell was recorded in a whole cell recording mode. After formation of a gigaseal and rapture of the membrane, clamping potential was set at −60 mV. 30 μM a,b-Me ATP (also known as “α,β-meATP”) was perfused for 5 seconds, and the P2X3-mediated current induced at this point was taken as a control current. The cells were then treated with a solution of compound 66 at a specific concentration (prepared with the extracellular fluid) for 5 minutes. The solution of compound 66 at this concentration and 30 μM a,b-Me ATP were co-applied to induce a cell current (see FIG. 6 for the effect of the compound on the current), and an inhibition rate relative to the control current was calculated according to the following formula:
as §1, §2

With `CNc1cc(Oc2cnc(N)nc2N)c(C(C)C)cn1` [Compound 22], the “antitussive effect (number of coughs in 10 minutes)” value in test [1] is listed as “significant antitussive effect, which was better than that of the clinical control compound”.
For the molecule `C#Cc1cc(Oc2cnc(N)nc2N)c(C(C)C)cn1` [Compound 66], in test [1], the “antitussive effect (number of coughs in 10 minutes)” value is “significant antitussive effect, which was better than that of the clinical control compound”. The IC50 at P2X3 [2] was found to be 0.0262 µM; at P2X3 [3], 0.0283 µM.
